One data set has as its system ACC and FAS. Nature of the data set: ACC/FAS coupled SPA, effect of DMSO and purification reagents. It counts as biochemical, rat. Particulars: for effect on the enzyme reaction: ACC/FAS coupled SPA, FIG. 12. Here is the method:
(§1) The [^3H]-acetyl CoA mix in the final reaction was 20 μM with 0.25 μCi per assay (specific activity of 250 μCi/μmol).
Compound Dilution: Compounds were dissolved in 100% DMSO to obtain 10 mM stock solution. A serial dilution of the compounds in 100% DMSO was made first. Then the compounds were diluted 1:33.3 in buffer to obtain 10× compound solution in 3% DMSO. From this intermediate dilution, a further 10× dilution was made in the assay, resulting 0.3% final DMSO concentration in the assay.
For screening in drug discovery, compounds are routinely dissolved in 100% DMSO and then further diluted to 1% or lower DMSO in the final assay. The effect of DMSO on the ACC/FAS coupled assay was studied. […] At 1% DMSO, the total signal decreased 25% and the S/B was reduced from 15 to 12 with a greater inhibition observed at higher concentrations. Therefore, it may be desirable to keep the final DMSO concentrations in the assay below 0.3%, and not to exceed 1%.
Buffers containing sucrose, glycerol and polyethylene glycol (PEG) were used in the purification of ACC and FAS. In addition, the purified enzymes were stored in buffers containing 20% glycerol to increase long-term stability. In view of this, the effects of glycerol, sucrose and PEG on the enzyme activities were studied with the ACC/FAS coupled SPA.

In data set [1] the target is T1, rat acetyl CoA carboxylase 1 (rACC) (Rattus norvegicus, UniProt P11497).
T1 construct: from tissue; host or cells: rat liver (rats fasted 36 h, then fed a fat-free carbohydrate diet for 48 h)
Description: ACC/FAS coupled scintillation proximity assay, reagent titrations (Km, Kact). It counts as biochemical. The note with it: other reagents saturating, acetyl CoA 20 μM, 37° C. Here is the method: The sequence of addition of the solution mixtures into each well of a custom 384-well phospholipid coated FLASHPLATE™ was as follows:
Step 1: Add 35 μl of enzyme mix in assay buffer.
Step 2: Add 5 μl of 3% DMSO or 10× compound in 3% DMSO.
Step 3: Incubate at room temperature for 10 min.
Step 5: Incubate the plate at 37° C. for 2 hours.
Step 6: Count the plate in a TOPCOUNT™ NXT for 2 min/well.
In general terms: Scintillation proximity formats need no separation of bound from free tracer.

For data set [2], the target named is T2, rat fatty acid synthase (rFAS) (Rattus norvegicus, UniProt P12785).
T2 construct: from tissue
T2 sequence (P12785 whole entry): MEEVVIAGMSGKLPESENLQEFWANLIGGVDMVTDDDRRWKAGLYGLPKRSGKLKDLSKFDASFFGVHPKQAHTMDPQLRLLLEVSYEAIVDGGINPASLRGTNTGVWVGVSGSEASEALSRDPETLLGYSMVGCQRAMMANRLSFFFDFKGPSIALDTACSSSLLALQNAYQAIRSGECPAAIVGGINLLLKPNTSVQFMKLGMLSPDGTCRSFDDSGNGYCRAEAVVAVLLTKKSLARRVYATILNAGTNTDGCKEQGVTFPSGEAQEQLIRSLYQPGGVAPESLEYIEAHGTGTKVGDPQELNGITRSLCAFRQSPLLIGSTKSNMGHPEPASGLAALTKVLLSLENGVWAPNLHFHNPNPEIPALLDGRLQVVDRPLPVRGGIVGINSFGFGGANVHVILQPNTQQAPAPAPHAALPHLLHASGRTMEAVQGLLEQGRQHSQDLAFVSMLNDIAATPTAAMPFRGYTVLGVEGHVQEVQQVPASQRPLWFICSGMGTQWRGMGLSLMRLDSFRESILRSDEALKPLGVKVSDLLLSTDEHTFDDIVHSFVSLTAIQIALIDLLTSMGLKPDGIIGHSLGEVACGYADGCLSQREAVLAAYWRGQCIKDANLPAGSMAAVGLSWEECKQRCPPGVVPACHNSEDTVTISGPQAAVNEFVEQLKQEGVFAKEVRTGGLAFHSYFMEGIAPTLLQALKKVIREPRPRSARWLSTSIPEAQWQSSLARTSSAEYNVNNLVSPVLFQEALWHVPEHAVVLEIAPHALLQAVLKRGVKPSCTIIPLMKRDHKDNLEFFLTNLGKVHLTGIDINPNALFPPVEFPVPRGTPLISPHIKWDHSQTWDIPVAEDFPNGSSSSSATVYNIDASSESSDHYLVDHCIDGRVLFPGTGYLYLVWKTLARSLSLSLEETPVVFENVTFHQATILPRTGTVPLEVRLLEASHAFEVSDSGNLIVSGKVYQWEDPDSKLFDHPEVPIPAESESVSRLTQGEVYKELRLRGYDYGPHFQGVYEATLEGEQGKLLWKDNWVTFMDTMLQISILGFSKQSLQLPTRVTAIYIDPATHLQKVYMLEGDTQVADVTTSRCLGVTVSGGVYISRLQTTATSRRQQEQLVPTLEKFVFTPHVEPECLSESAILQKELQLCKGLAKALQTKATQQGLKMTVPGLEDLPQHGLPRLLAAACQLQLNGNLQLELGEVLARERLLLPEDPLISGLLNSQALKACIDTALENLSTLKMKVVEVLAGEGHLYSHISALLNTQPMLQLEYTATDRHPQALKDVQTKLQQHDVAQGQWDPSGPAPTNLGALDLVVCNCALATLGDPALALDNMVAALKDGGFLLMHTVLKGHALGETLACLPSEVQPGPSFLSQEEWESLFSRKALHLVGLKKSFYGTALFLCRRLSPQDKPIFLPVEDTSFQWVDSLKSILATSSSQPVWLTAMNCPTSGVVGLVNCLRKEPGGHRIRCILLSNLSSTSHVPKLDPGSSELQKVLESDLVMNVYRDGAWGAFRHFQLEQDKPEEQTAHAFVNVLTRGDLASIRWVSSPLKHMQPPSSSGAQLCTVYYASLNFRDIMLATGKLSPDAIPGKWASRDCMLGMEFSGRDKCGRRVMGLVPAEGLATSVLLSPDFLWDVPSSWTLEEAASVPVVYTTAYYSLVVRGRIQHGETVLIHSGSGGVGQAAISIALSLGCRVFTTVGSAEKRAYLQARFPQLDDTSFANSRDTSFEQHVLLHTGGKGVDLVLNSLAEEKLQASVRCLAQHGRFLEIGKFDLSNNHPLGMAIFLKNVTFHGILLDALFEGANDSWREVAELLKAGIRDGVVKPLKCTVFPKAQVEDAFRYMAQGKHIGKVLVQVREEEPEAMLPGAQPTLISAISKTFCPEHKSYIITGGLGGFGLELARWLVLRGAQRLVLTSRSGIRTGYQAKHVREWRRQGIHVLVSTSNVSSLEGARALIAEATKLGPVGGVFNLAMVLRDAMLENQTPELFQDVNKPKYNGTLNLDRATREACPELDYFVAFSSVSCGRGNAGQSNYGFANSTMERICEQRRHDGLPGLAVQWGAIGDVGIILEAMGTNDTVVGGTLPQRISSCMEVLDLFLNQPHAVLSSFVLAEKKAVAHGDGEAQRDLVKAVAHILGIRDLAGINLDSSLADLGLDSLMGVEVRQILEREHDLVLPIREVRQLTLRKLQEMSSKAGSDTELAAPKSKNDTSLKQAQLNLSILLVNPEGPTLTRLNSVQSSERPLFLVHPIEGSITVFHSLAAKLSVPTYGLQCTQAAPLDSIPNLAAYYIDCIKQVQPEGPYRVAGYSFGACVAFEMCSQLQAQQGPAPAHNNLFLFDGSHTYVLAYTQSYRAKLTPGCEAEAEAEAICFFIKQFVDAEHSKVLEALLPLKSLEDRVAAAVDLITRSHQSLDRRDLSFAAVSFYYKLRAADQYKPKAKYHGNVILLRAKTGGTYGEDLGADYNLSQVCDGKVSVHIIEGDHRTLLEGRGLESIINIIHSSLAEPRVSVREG
Nature of the data set: ACC/FAS coupled SPA, dependence of FAS activity on NADPH. In kind it is biochemical. Particulars: FAS cofactor, varied in the ACC/FAS coupled assay. Here is the method: as §1
The Km values for these FAS substrates can be determined independently. In the present study, the dependence of FAS activity on NADPH was determined by varying the cofactor concentration (FIG. 10). […] In this study, NADPH was maintained at saturating concentration of 100 μM.

Data set [3] has as its system CC(=O)SCCNC(=O)CCNC(=O)[C@H](O)C(C)(C)COP(=O)(O)OP(=O)(O)OC[C@H]1O[C@@H](n2cnc3c(N)ncnc32)[C@H](O)[C@@H]1OP(=O)(O)O. Nature of the data set: purified protein, by the assay type. The note with it: other: from saturation curve, other reagents saturating, 37° C., pH 7.6.

The term Km denotes the substrate concentration at which the rate is half of its maximum.

On to `C[S+](C)[O-]` [DMSO], for which the “effect on the activity of FAS or ACC” value in the data set with ACC and FAS (DMSO concentrations up to 0.3%) is reported as “no significant effect”. Moreover, the “decrease of total signal” value in the data set with ACC and FAS (at 1% DMSO) is given as 25%.
For `[Cl-].[Cl-].[Mg+2]` [MgCl2], the “Kact (half-maximal saturation value)” value in data set [1] is recorded as 6.3 mM.
Take `NC(=O)C1=CN([C@@H]2O[C@H](COP(=O)(O)OP(=O)(O)OC[C@H]3O[C@@H](n4cnc5c(N)ncnc54)[C@H](OP(=O)(O)O)[C@@H]3O)[C@@H](O)[C@H]2O)C=CC1` [NADPH]: the Km in data set [2] stood at 28 µM.
Turning to `O=C([O-])O.[Na+]` [NaHCO3], the Km in data set [1] (from saturation curve) turned out to be 1700 µM.
Turning to `OCC(O)CO` [glycerol], the “effect on the enzyme reaction” value with ACC and FAS was “none of these reagents have any significant effect”.
As for `OC[C@H]1O[C@@](CO)(O[C@H]2O[C@H](CO)[C@@H](O)[C@H](O)[C@H]2O)[C@@H](O)[C@@H]1O` [sucrose], in the data set on ACC and FAS, the “effect on the enzyme reaction” value was “none of these reagents have any significant effect”.
For “rat acetyl CoA carboxylase 1 (rACC) (Rattus norvegicus)”, the Km in data set [3] came out at 47 µM.

These data come from patent US7384757B2 (Bristol-Myers Squibb Company, priority 2004, dated 2008).
